According to patent US20250353891A1 (MEDIMMUNE LIMITED, priority 2022, published 2025):
Read-outs that look alike come from different tables or passages of the source. Starred links: 1 amine or outer side, 2 acyl side, 3 side chain; linkers in the order of their positions; H or OH if unused. Non-standard residues stand in square brackets, D forms with d. Residues, ends and D or L forms follow the SMILES beside them. Groups on a side chain read outwards from the residue. *: point of attachment. C18 diacid = O=C(O)CCCCCCCCCCCCCCCCC(=O)*; γGlu = O=C(O)[C@H](CCC(=O)[*:2])N[*:1]; Stearoyl = CCCCCCCCCCCCCCCCCC(=O)*; αMeF = C[C@](N)(Cc1ccccc1)C(=O)O; PEG2 = NCCOCCOCCC(=O)O; AEEA = NCCOCCOCC(=O)O; Aib = CC(C)(N)C(=O)O

Legend:
wildtype (WT) mice = experiment: Glucose change in wildtype mice; type: in vivo, mouse; conditions: s.c., 3 nmol/kg, 120 min vs 0 min, no somatostatin pretreatment
Outline: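 Wildtype mice aged 8-14 weeks, fasted 2 h, sometimes pre-treated with octreotide 10 mg/kg 30 min before peptide injection. Blood glucose by glucometer at -30, 0, 30, 60, 120, 180, 240 and 360 min; n=4-8/group, mice reused up to 3 times with ≥1 week wash-out.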

[1] = Proteolytic resistance to FasSSGF containing porcine pancreatic pepsin; type: in vitro ADME; conditions: pig, simulated gastric fluid
Method: Stimulated Gastric Fluid (FasSSGF) Containing Porcine Pancreatic Pepsin Lyophilized porcine pancreatic pepsin (Sigma: P7012) was reconstituted to 0.5 mg/mL (˜2500 units/mL) in freshly prepared FasSSGF (Biorelevant media) to give the enzyme stock solution. Peptide stock solution was prepared to a concentration of 250 μM (˜1.0 mg/mL) in FasSSGF. 200 μL ([…], ˜250 units) of pepsin stock solution was added to 200 μL of peptide solution (1.0 mg/mL, ˜100 μg of peptide, ˜25 nmoles) and the mixture was co-incubated in a temperature-regulated incubator at 37° C. for the duration of the experiment. 30 μL aliquot of the peptide-enzyme mixture was periodically withdrawn (t=0, 5, 10, 15, and 30 min) and quenched immediately by addition of 80 μL of 0.1M ammonium bicarbonate solution in water/acetonitrile (4:1, pH 8) to arrest proteolytic activity. 30 μL aliquot was analyzed by analytical RP-HPLC. Analytical RP-HPLC method: Agilent Polaris C8-A column (4.6×100 mm, 3 micron) eluted with a linear binary gradient of 10-90% MeCN (0.1% TFA v/v) in water (0.1% TFA v/v) over either 10 or 15 mins at 1.5 mL min-1 at 40° C. with detection by UV absorption at 210 nm. Manual integration (AUC) allowed estimation of remaining intact peptide over the time course of the experiment.

recombinant Neprilysin = biological target: T1, recombinant Neprilysin (Homo sapiens, UniProt P08473); experiment: Proteolytic resistance to neprilysin; type: in vitro ADME; conditions: pH 8.3; for remaining at 4 h / remaining at 24 h: isolated enzyme neprilysin
T1 construct: purchased R&D Systems 1182-ZNC-010
T1 sequence (P08473 52-750 limits assumed): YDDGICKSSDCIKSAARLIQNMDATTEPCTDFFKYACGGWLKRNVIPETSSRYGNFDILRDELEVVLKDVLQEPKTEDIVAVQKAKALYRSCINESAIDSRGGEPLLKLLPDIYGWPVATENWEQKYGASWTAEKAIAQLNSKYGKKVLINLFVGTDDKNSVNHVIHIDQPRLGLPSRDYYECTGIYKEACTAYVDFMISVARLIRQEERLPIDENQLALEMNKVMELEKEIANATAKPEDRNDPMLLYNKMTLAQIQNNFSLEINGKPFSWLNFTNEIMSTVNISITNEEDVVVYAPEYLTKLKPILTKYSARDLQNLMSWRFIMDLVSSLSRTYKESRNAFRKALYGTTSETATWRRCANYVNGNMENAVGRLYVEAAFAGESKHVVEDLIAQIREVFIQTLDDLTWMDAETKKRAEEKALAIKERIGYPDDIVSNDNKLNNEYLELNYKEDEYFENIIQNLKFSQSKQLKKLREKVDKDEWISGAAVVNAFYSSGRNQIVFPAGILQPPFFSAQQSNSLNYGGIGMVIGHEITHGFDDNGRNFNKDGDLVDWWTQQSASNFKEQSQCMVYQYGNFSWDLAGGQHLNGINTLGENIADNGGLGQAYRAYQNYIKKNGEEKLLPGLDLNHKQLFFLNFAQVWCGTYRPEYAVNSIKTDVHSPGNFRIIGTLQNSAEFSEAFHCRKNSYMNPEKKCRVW
Method: 10.0 μg (˜10 units) recombinant Neprilysin (R&D Systems: 1182-ZNC-010) was reconstituted to 100 μL (100 μg/mL, ˜100 units/mL) in assay buffer (50 mM Tris, 50 mM NaCl, 50 mM NaHCO3, adjusted to pH 8.3) to give the enzyme stock solution. Peptide stock solutions were prepared to a concentration of ˜250 μM (˜1.0 mg/mL of 4 kDa peptide) in assay buffer. 100 μL (10 μg, ˜10 units) of neprilysin stock solution was added to 100 μL of peptide stock solution (1.0 mg/mL, ˜100 μg of peptide) and the mixture was co-incubated in a temperature regulated incubator at 37° C. for the duration of the experiment. 25 μL aliquots (˜ 12.5 μg initial peptide) of the peptide-enzyme mixture were periodically withdrawn (t=0, 30 mins, 1 h, 2 h, 4 h and 24 h) and quenched immediately by addition to an equal volume ([…]) of 10% TFA (v/v) in 1:1 water/acetonitrile to arrest proteolytic activity. The quenched aliquot centrifuged at 7800 rpm, and 30 μL of the supernatant was analyzed by analytical RP-HPLC as follows: Analytical RP-HPLC method: Agilent Polaris C8-A column (4.6×100 mm, 3 micron) eluted with a linear binary gradient of 10-90% MeCN (0.1% TFA v/v) in water (0.1% TFA v/v) over either 10 or 15 mins at 1.5 mL min-1 at 40° C. with detection by UV absorption at 210 nm. Manual integration (AUC) allowed estimation of remaining intact peptide over the time course of the experiment.

[2] = test system: GLP-1R knockout (KO) mice; experiment: Glucose change in GLP-1R knockout mice; type: in vivo, mouse; conditions: GLP-1R KO mice, s.c., 3 nmol/kg, 120 min vs 0 min, no somatostatin pretreatment
Outline: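 GLP-1R knockout mice (n=4-8/group, sorted by body weight) were fasted 2 h, and in some studies pretreated with octreotide 10 mg/kg 30 min before peptide injection. Mice were reused up to 3 times with at least 1-week wash-out.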

[3] = biological target: human GLP-1 receptor (hGLP-1R) (Homo sapiens, UniProt P43220); experiment: cAMP production (HTRF) in CHO cells expressing hGLP-1R; type: cell-based; design: expressed in transfected cells; conditions: for EC50: cAMP in CHO hGLP-1R cells, geometric mean, read-out: hGLP-1R EC50; for % Relative Potency Ratio: % GLP-1R activity relative to GLP-1 / % GlucR activity relative to glucagon
Chain of human GLP-1 receptor (hGLP-1R) (P43220 24-463): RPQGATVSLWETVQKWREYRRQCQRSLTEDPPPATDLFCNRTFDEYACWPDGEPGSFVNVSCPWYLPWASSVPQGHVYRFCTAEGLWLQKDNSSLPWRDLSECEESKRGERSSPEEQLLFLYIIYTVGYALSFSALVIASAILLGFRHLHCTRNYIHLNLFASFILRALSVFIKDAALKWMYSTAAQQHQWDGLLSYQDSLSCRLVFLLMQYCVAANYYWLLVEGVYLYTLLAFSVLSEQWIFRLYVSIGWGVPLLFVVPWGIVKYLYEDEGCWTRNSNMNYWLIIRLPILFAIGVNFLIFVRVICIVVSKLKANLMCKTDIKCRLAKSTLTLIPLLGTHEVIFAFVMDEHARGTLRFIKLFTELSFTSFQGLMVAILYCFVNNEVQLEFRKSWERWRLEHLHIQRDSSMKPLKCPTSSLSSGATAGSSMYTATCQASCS
Outline: (§1)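 Potency values represent EC50 from 4-parameter logistic curves of HTRF % Delta F signal. Receptor-expressing CHO cells (hGCGR 2×10^5 cells/mL, hGLP-1R 1×10^5 cells/mL) were exposed for 30 min at room temperature before two-step cAMP detection.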

[4] = Proteolytic resistance to FasSSIF/Pancreatin; type: in vitro ADME; conditions: simulated intestinal fluid
Outline: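 Peptide (1.0 mg) in pre-warmed FasSSIF, proteolysis started with fresh FasSSIF/USP Pancreatin and held at 37 °C. Aliquots at 0, 5, 10, 15, 30 min quenched in 10% TFA; remaining intact peptide estimated by RP-HPLC peak area, UV 210 nm.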

[5] = biological target: human glucagon receptor (hGCGR) (Homo sapiens, UniProt P47871); experiment: cAMP production (HTRF) in CHO cells expressing hGCGR; type: cell-based; design: expressed in transfected cells; conditions: cAMP in CHO hGCGR cells, geometric mean, read-out: hGluc-R EC50
Chain of human glucagon receptor (hGCGR) (P47871 26-477): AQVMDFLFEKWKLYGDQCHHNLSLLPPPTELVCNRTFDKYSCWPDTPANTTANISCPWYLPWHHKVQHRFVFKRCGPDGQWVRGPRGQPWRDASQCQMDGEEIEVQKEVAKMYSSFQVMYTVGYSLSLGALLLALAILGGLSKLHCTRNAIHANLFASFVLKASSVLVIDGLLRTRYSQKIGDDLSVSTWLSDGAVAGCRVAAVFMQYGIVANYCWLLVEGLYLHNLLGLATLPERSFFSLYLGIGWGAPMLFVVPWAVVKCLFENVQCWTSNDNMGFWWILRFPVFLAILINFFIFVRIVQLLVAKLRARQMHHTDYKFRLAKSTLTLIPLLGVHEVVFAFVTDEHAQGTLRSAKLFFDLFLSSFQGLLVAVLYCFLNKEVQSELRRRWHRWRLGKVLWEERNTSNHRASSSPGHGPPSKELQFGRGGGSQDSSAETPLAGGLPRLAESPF
Outline: as §1

in vivo = conditions: male, C57BL/6, mouse, 10 nmol/kg
Excerpt: Selected test peptides (n=8) were profiled for pharmacokinetic (PK) properties in the mouse after single intravenous (i.v.) or subcutaneous (s.c.) dose. A subset (n=4) meeting the acceptance criteria was subsequently profiled in the dog (single i.v. dose) and non-human primate (single i.v. and s.c. dose). […] Low-binding plasticware containers were used during preparation and sample handling to avoid non-specific binding.
After dosing, PK samples were collected from the dorsal metatarsal vein. Blood of each sample was transferred into plastic micro centrifuge tubes containing EDTA-K2, inverted several times for proper mixing of contents and then placed on wet ice. The blood samples were centrifuged at 4° C. to obtain plasma and stored at −75° C. prior to analysis.
Samples analysis: Samples were analyzed by LC-MS/MS. Calibration standards were injected at the beginning and end of each batch and the determined concentration for each prepared standard was used to construct a calibration curve. Plasma and dose aliquot sample concentrations were determined from the plasma calibration curve.
Data analysis: Plasma concentration data was analyzed by non-compartmental analysis (NCA) using Phoenix Winnonlin v. 8.3.3.33. Linear trapezoidal rule was used for increasing values and log trapezoidal rule was used for decreasing values, applying uniform weighting for lambda_z calculations. Subcutaneous bioavailability was calculated as the ratio AUC(s.c.)0-inf/AUC(i.v.)0-inf. Reported values (Table 18) represent the mean of the individual estimates.

[6] = Table 6, peptides modified at position 17
[7] = Table 7, peptides modified at position 20

SMILES	WT % glucose change 120 min (wildtype (WT) mice)	remaining at 0.25 h, 125 µM [1]	remaining at 0.5 h, 125 µM [1]	remaining at 4 h (recombinant Neprilysin)	remaining at 24 h (recombinant Neprilysin)	% intact peptide over time (recombinant Neprilysin)	GLP-1R KO % glucose change 120 min [2]	EC50 [3, 6]	% Relative Potency Ratio ([3]; Table 6)	remaining at 5 min, 3.3 mg/mL [4]	remaining at 10 min, 3.3 mg/mL [4]	remaining at 0.25 h, 3.3 mg/mL [4]	remaining at 0.5 h, 3.3 mg/mL [4]	EC50 [5, 6]	EC50 [3, 7]	% Relative Potency Ratio ([3]; Table 7)	EC50 [5, 7]	bioavailability (in vivo)	half-life (in vivo; iv)
CCCCCCCCCCCCCCCCCC(=O)N[C@@H](CCC(=O)N[C@@H](CCC(=O)NCCOCCOCCC(=O)NCCOCCOCCC(=O)NCCCC[C@H](NC(=O)[C@H](CO)NC(=O)[C@H](CC(=O)O)NC(=O)[C@H](CC(C)C)NC(=O)[C@](C)(Cc1ccccc1)NC(=O)[C@H](CCCCN)NC(=O)[C@H](CO)NC(=O)[C@@H](NC(=O)[C@H](CC(=O)O)NC(=O)[C@H](CO)NC(=O)[C@@H](NC(=O)[C@](C)(Cc1ccccc1)NC(=O)[C@H](CO)NC(=O)CNC(=O)[C@H](CCC(N)=O)NC(=O)[C@H](CO)NC(=O)[C@@H](N)Cc1c[nH]cn1)[C@@H](C)O)C(C)C)C(=O)N[C@@H](C)C(=O)N[C@@H](C)C(=O)N[C@@H](CCC(N)=O)C(=O)N[C@@H](CC(=O)O)C(=O)N[C@@](C)(Cc1ccccc1)C(=O)N[C@H](C(=O)N[C@@H](CCC(N)=O)C(=O)NC(C)(C)C(=O)N[C@@H](CC(C)C)C(=O)N[C@@H](CCC(=O)O)C(=O)N[C@@H](C)C(=O)NCC(=O)NCC(N)=O)C(C)C)C(=O)O)C(=O)O [Peptide 78] (H-HSQGS[αMeF]TSDVSK[αMeF]LDSK([PEG2-PEG2-γGlu-γGlu-Stearoyl])AAQD[αMeF]VQ[Aib]LEAGG-NH2; N-terminus assumed)	−42.0%	100%	100%	100%	100%	100%	51.3%	0.00114 nM	15.6	83%	76%	69%	58%	0.00897 nM					
CC[C@H](C)[C@H](NC(=O)C(C)(C)NC(=O)[C@H](CCC(N)=O)NC(=O)[C@@H](NC(=O)[C@H](Cc1ccccc1)NC(=O)[C@H](CC(=O)O)NC(=O)[C@H](CCCCNC(=O)COCCOCCNC(=O)COCCOCCNC(=O)CC[C@H](NC(=O)CCCCCCCCCCCCCCCCC(=O)O)C(=O)O)NC(=O)[C@H](C)NC(=O)[C@H](C)NC(=O)[C@H](CCCNC(=N)N)NC(=O)[C@H](CO)NC(=O)[C@H](CC(=O)O)NC(=O)[C@H](CC(C)C)NC(=O)[C@](C)(Cc1ccccc1)NC(=O)[C@H](CCCCN)NC(=O)[C@H](CO)NC(=O)[C@@H](NC(=O)[C@H](CC(=O)O)NC(=O)[C@H](CO)NC(=O)[C@@H](NC(=O)[C@](C)(Cc1ccccc1)NC(=O)[C@H](CO)NC(=O)CNC(=O)[C@H](Cc1c[nH]cn1)NC(=O)C(C)(C)NC(=O)[C@@H](N)Cc1c[nH]cn1)[C@@H](C)O)C(C)C)C(C)C)C(=O)N[C@@H](C)C(=O)N[C@@H](CC(N)=O)C(=O)N[C@H](C(N)=O)[C@@H](C)O [Peptide 287] (H-H[Aib]HGS[αMeF]TSDVSK[αMeF]LDSRAAK([AEEA-AEEA-γGlu-C18 diacid])DFVQ[Aib]IANT-NH2)		0%	0%	77%	59%	100%									0.0275 nM	1.9	0.0265 nM		
CC(C)C[C@H](NC(=O)[C@H](Cc1c[nH]c2ccccc12)NC(=O)[C@H](CCCNC(=N)N)NC(=O)[C@@H](NC(=O)[C@H](Cc1ccccc1)NC(=O)[C@H](CC(=O)O)NC(=O)[C@H](CCC(N)=O)NC(=O)[C@H](C)NC(=O)[C@H](CCCNC(=N)N)NC(=O)[C@H](CCCCNC(=O)COCCOCCNC(=O)COCCOCCNC(=O)CC[C@H](NC(=O)CCCCCCCCCCCCCCCCC(=O)O)C(=O)O)NC(=O)[C@H](CCCCN)NC(=O)[C@H](CC(=O)O)NC(=O)[C@H](CC(C)C)NC(=O)[C@](C)(Cc1ccccc1)NC(=O)[C@H](CCCCN)NC(=O)[C@H](CO)NC(=O)[C@@H](NC(=O)[C@H](CC(=O)O)NC(=O)[C@H](CO)NC(=O)[C@@H](NC(=O)[C@H](Cc1ccccc1)NC(=O)[C@@H](NC(=O)CNC(=O)[C@H](CCC(N)=O)NC(=O)C(C)(C)NC(=O)[C@@H](N)Cc1c[nH]cn1)[C@@H](C)O)[C@@H](C)O)C(C)C)C(C)C)C(=O)N[C@@H](CC(C)C)C(=O)NC(C)(C)C(=O)N[C@@H](CCC(=O)O)C(N)=O [Peptide 420] (H-H[Aib]QGTFTSDVSK[αMeF]LDKK([AEEA-AEEA-γGlu-C18 diacid])RAQDFVRWLL[Aib]E-NH2; N-terminus assumed)								0.0231 nM	3.2					0.0369 nM				49%	5.7 h
